# According to US10934310B2, “Inhibitors of Bruton's tyrosine kinase and method of their use” (JANSSEN PHARMACEUTICA NV, priority 2015, dated 2021):
# Biological target: unphosphorylated-BTK kinase domain (UP-BTK), GST-tagged human BTK (389-659aa) (Homo sapiens (Human), UniProt Q06187)
# Test: BTK Kinase Lanthascreen Binding Assay
# Conditions: compound, 50 nM Tracer 236, 2 nM anti-GST antibody, 60 minutes; pIC50 = negative log of the IC50 in molar
# Procedure: BTK Kinase Lanthascreen Binding Assay:
# A BTK kinase lanthascreen binding assay monitors compound binding to unphosphorylated-BTK kinase domain (UP-BTK), by competing with a fluorescent labeled tracer. […] Data were analyzed using Xlfit™ version 5.3 from ID Business Solutions (Guildford), Microsoft Excel add-in. pIC50 refers to the negative log of the IC50 in molar.
# Sequence of unphosphorylated-BTK kinase domain (UP-BTK), GST-tagged human BTK (389-659aa) (Q06187 389-659): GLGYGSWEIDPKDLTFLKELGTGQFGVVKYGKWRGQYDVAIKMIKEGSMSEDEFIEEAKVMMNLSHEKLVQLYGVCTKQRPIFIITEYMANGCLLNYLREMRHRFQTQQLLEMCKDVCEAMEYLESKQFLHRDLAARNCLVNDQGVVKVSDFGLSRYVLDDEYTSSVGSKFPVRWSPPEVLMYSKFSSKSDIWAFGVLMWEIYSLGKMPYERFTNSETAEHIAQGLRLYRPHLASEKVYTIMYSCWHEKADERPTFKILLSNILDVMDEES
row,SMILES,BTK_I_binding pIC50
1,"C=CC(=O)N[C@H]1CCCC[C@H]1NC(=O)c1sc2nccc3c2c1NC(=O)N3c1ccc(OC(C)C)cc1C (single isomer, unassigned) [Example 174, N-((1R,2S)-2-Acrylamidocyclohexyl)-5-(*R)-(4-isopropoxy-2-methylphenyl)-4-oxo-4,5-dihydro-3H-1-thia-3,5,8-triazaacenaphthylene-2-carboxamide]",8.28
2,"C=CC(=O)N[C@@H]1CC[C@H](NC(=O)c2sc3nccc4c3c2NC(=O)N4c2ccc(OC(C)C)cc2C)C1 (single isomer, unassigned) [Example 186, N-((1S,3R)-3-Acrylamidocyclopentyl)-5-(*R)-(4-isopropoxy-2-methylphenyl)-4-oxo-4,5-dihydro-3H-1-thia-3,5,8-triazaacenaphthylene-2-carboxamide]",7.62
3,"C=CC(=O)N[C@@H]1CCC[C@H](NC(=O)c2sc3nccc4c3c2NC(=O)N4c2ccc(OC(C)C)cc2C)C1 (single isomer, unassigned) [Example 190, N-((1S,3R)-3-Acrylamidocyclohexyl)-5-(*R)-(4-isopropoxy-2-methylphenyl)-4-oxo-4,5-dihydro-3H-1-thia-3,5,8-triazaacenaphthylene-2-carboxamide]",7.10
4,"C=CC(=O)N[C@H]1CCCC[C@H]1NC(=O)c1sc2nccc3c2c1NC(=O)N3c1ccc(OC2CCC2)nc1C (single isomer, unassigned) [Example 204, N-((1R,2S)-2-Acrylamidocyclohexyl)-5-(*S)-(6-cyclobutoxy-2-methylpyridin-3-yl)-4-oxo-4,5-dihydro-3H-1-thia-3,5,8-triazaacenaphthylene-2-carboxamide]",8.03
5,"C=CC(=O)N[C@H]1CCCC[C@H]1NC(=O)c1sc2nccc3c2c1NC(=O)N3c1ccc(OC(C)C)nc1C (single isomer, unassigned) [Example 209, N-((1R,2S)-2-Acrylamidocyclohexyl)-5-(*S)-(6-isopropoxy-2-methylpyridin-3-yl)-4-oxo-4,5-dihydro-3H-1-thia-3,5,8-triazaacenaphthylene-2-carboxamide]",7.31
6,"Cc1cc(Oc2ccccc2)ncc1N1C(=O)Nc2c(C(=O)N[C@@H]3CCC[C@@H]3NC(=O)CCCl)sc3nccc1c23 (single isomer, unassigned) [Example 210, N-((1R,2S)-2-(3-Chloropropanamido)cyclopentyl)-5-(*S)-(4-methyl-6-phenoxypyridin-3-yl)-4-oxo-4,5-dihydro-3H-1-thia-3,5,8-triazaacenaphthylene-2-carboxamide]",7.19
7,"C=CC(=O)N[C@@H]1CCC[C@@H](NC(=O)c2sc3nccc4c3c2NC(=O)N4c2ccc(OC(C)C)cc2C)C1 (single isomer, unassigned) [Example 215, N-((1R,3R)-3-Acrylamidocyclohexyl)-5-(*R)-(4-isopropoxy-2-methylphenyl)-4-oxo-4,5-dihydro-3H-1-thia-3,5,8-triazaacenaphthylene-2-carboxamide]",7.13
8,"C=CC(=O)N[C@@H]1CCC[C@H]1NC(=O)c1sc2nccc3c2c1NC(=O)N3c1cnc(Oc2ccccc2)nc1C (single isomer, unassigned) [Example 219, N-((1R,2R)-2-Acrylamidocyclopentyl)-5-(*S)-(4-methyl-2-phenoxypyrimidin-5-yl)-4-oxo-4,5-dihydro-3H-1-thia-3,5,8-triazaacenaphthylene-2-carboxamide]",7.94
9,"C=CC(=O)N[C@H]1CCCC[C@H]1NC(=O)c1sc2nccc3c2c1NC(=O)N3c1cnc(OC2CCC2)cc1C (single isomer, unassigned) [Example 221, N-((1R,2S)-2-Acrylamidocyclohexyl)-5-(*S)-(6-cyclobutoxy-4-methylpyridin-3-yl)-4-oxo-4,5-dihydro-3H-1-thia-3,5,8-triazaacenaphthylene-2-carboxamide]",8.29
10,"Cc1cc(Oc2ccccc2)ncc1N1C(=O)Nc2c(C(=O)N[C@@H]3CCC[C@H]3N)sc3nccc1c23 (single isomer, unassigned) [Example 233]",6.85
11,"C=CC(=O)N[C@H]1CCCC[C@H]1NC(=O)c1sc2nccc3c2c1NC(=O)N3c1ccc(OC(C)C)nc1C (single isomer, unassigned) [Example 238, N-((1R,2S)-2-Acrylamidocyclohexyl)-5-(*R)-(6-isopropoxy-2-methylpyridin-3-yl)-4-oxo-4,5-dihydro-3H-1-thia-3,5,8-triazaacenaphthylene-2-carboxamide]",6.95

# More lines, now with the values ahead:
row,BTK_I_binding pIC50,SMILES
1,8.05,"C=CC(=O)N[C@@H]1CC[C@@H](NC(=O)c2sc3nccc4c3c2NC(=O)N4c2ccc(Oc3ccccc3)cc2C)C1 (single isomer, unassigned) [Example 175, N-((1R,3R)-3-Acrylamidocyclopentyl)-5-(*S)-(2-methyl-4-phenoxyphenyl)-4-oxo-4,5-dihydro-3H-1-thia-3,5,8-triazaacenaphthylene-2-carboxamide]"
2,7.78,"C=CC(=O)N[C@@H]1CCC[C@H](NC(=O)c2sc3nccc4c3c2NC(=O)N4c2ccc(Oc3ccccc3)cc2C)C1 (single isomer, unassigned) [Example 176, N-((1S,3R)-3-Acrylamidocyclohexyl)-5-(*S)-(2-methyl-4-phenoxyphenyl)-4-oxo-4,5-dihydro-3H-1-thia-3,5,8-triazaacenaphthylene-2-carboxamide]"
3,7.94,"CC(=O)N[C@@H]1CCC[C@H](NC(=O)c2sc3nccc4c3c2NC(=O)N4c2ccc(Oc3ccccc3)cc2C)C1 (single isomer, unassigned) [Example 180, N-((1S,3R)-3-Acetamidocyclohexyl)-5-(*S)-(2-methyl-4-phenoxyphenyl)-4-oxo-4,5-dihydro-3H-1-thia-3,5,8-triazaacenaphthylene-2-carboxamide]"
4,7.33,"Cc1cc(Oc2ccccc2)ccc1N1C(=O)Nc2c(C(=O)N[C@@H]3CCC[C@@H](N)C3)sc3nccc1c23 (single isomer, unassigned) [Example 181]"
5,7.66,"C=CC(=O)N[C@@H]1CCC[C@@H](NC(=O)c2sc3nccc4c3c2NC(=O)N4c2ccc(Oc3ccccc3)cc2C)C1 (single isomer, unassigned) [Example 182, N-((1R,3R)-3-Acrylamidocyclohexyl)-5-(*S)-(2-methyl-4-phenoxyphenyl)-4-oxo-4,5-dihydro-3H-1-thia-3,5,8-triazaacenaphthylene-2-carboxamide]"
6,7.55,"CC(=O)N[C@@H]1CCC[C@@H](NC(=O)c2sc3nccc4c3c2NC(=O)N4c2ccc(Oc3ccccc3)cc2C)C1 (single isomer, unassigned) [Example 195, N-((1R,3R)-3-Acetamidocyclohexyl)-5-(*S)-(2-methyl-4-phenoxyphenyl)-4-oxo-4,5-dihydro-3H-1-thia-3,5,8-triazaacenaphthylene-2-carboxamide]"
7,7.12,"C=CC(=O)N[C@H]1CC[C@@H](NC(=O)c2sc3nccc4c3c2NC(=O)N4c2ccc(Oc3ccccc3)cc2C)C1 (single isomer, unassigned) [Example 196, N-((1R,3S)-3-Acrylamidocyclopentyl)-5-(*S)-(2-methyl-4-phenoxyphenyl)-4-oxo-4,5-dihydro-3H-1-thia-3,5,8-triazaacenaphthylene-2-carboxamide]"
8,8.18,"C=CC(=O)N[C@@H]1CCC[C@H]1NC(=O)c1sc2nccc3c2c1NC(=O)N3c1cnc(Oc2ccccc2)cc1C (single isomer, unassigned) [Example 200, N-((1R,2R)-2-Acrylamidocyclopentyl)-5-(*S)-(4-methyl-6-phenoxypyridin-3-yl)-4-oxo-4,5-dihydro-3H-1-thia-3,5,8-triazaacenaphthylene-2-carboxamide]"
9,7.30,"C=CC(=O)N[C@@H]1CCCC[C@H]1NC(=O)c1sc2nccc3c2c1NC(=O)N3c1cnc(Oc2ccccc2)cc1C (single isomer, unassigned) [Example 213, N-((1R,2R)-2-Acrylamidocyclohexyl)-5-(*S)-(4-methyl-6-phenoxypyridin-3-yl)-4-oxo-4,5-dihydro-3H-1-thia-3,5,8-triazaacenaphthylene-2-carboxamide]"
10,6.85,"C=CC(=O)N[C@H]1CC[C@H](NC(=O)c2sc3nccc4c3c2NC(=O)N4c2ccc(Oc3ccccc3)cc2C)C1 (single isomer, unassigned) [Example 226, N-((1S,3S)-3-Acrylamidocyclopentyl)-5-(*S)-(2-methyl-4-phenoxyphenyl)-4-oxo-4,5-dihydro-3H-1-thia-3,5,8-triazaacenaphthylene-2-carboxamide]"
11,7.24,"Cc1cc(Oc2ccccc2)ccc1N1C(=O)Nc2c(C(=O)N[C@H]3CCC[C@@H](N)C3)sc3nccc1c23 (single isomer, unassigned) [Example 230, N-((1S,3R)-3-Aminocyclohexyl)-5-(*S)-(2-methyl-4-phenoxyphenyl)-4-oxo-4,5-dihydro-3H-1-thia-3,5,8-triazaacenaphthylene-2-carboxamide]"
12,6.56,"C=CC(=O)N[C@H]1CCC[C@H](NC(=O)c2sc3nccc4c3c2NC(=O)N4c2ccc(Oc3ccccc3)cc2C)C1 (single isomer, unassigned) [Example 231, N-((1S,3S)-3-Acrylamidocyclohexyl)-5-(*S)-(2-methyl-4-phenoxyphenyl)-4-oxo-4,5-dihydro-3H-1-thia-3,5,8-triazaacenaphthylene-2-carboxamide]"
13,6.56,"C=CC(=O)N[C@H]1CCC[C@@H](NC(=O)c2sc3nccc4c3c2NC(=O)N4c2ccc(Oc3ccccc3)cc2C)C1 (single isomer, unassigned) [Example 237, N-((1R,3S)-3-Acrylamidocyclohexyl)-5-(*S)-(2-methyl-4-phenoxyphenyl)-4-oxo-4,5-dihydro-3H-1-thia-3,5,8-triazaacenaphthylene-2-carboxamide]"
